Assay results from ChEMBL document CHEMBL1139224, “Discovery and metabolic stabilization of potent and selective 2-amino-N-(adamant-2-yl) acetamide 11beta-hydroxysteroid dehydrogenase type 1 inhibitors” (J Med Chem, 2007).

How the values were obtained:
[1] = Intrinsic clearance in human liver microsomes at 1 uM; type: ADME, Microsome
[2] = target: 11-beta-hydroxysteroid dehydrogenase 1 (Mus musculus, UniProt P50172); assay: Inhibition of mouse 11beta-HSD1 expressed in Escherichia coli by SPA
[3] = Intrinsic clearance in mouse liver microsomes at 1 uM; type: ADME, Microsome
[4] = target: 11-beta-hydroxysteroid dehydrogenase 1 (Mus musculus) (UniProt P50172); assay: Inhibition of mouse 11beta-HSD1 in DIO mouse liver at 30 mg/kg, po after 7 hrs; type: organism-based; set-up: dose 30 mg/kg
[5] = Plasma clearance in mouse at 10 mg/kg, iv; type: ADME, organism-based; set-up: dose 10 mg/kg, route intravenous
[6] = target: 11-beta-hydroxysteroid dehydrogenase 1 (Mus musculus) (UniProt P50172); assay: Inhibition of mouse 11beta-HSD1 in DIO mouse adipose tissue at 30 mg/kg, po after 7 hrs; type: organism-based; set-up: dose 30 mg/kg
[7] = target: 11-beta-hydroxysteroid dehydrogenase 1 (Rattus norvegicus, UniProt P16232); assay: Inhibitory activity against rat 11beta-HSD1
[8] = Half life in rat at 5 mg/kg, po; type: ADME, organism-based; set-up: dose 5 mg/kg, route oral; details: in vivo
[9] = target: 11-beta-hydroxysteroid dehydrogenase 1 (Mus musculus) (UniProt P50172); assay: Inhibition of mouse 11beta-HSD1 in DIO mouse brain at 30 mg/kg, po after 1 hr; type: organism-based; set-up: dose 30 mg/kg
Mus musculus = assay: AUC in mouse at 10 mg/kg, po; type: ADME, organism-based, Plasma; set-up: dose 10 mg/kg, route oral; details: in vivo
[10] = Half life in mouse at 10 mg/kg, iv; type: ADME, organism-based; set-up: dose 10 mg/kg, route intravenous; details: in vivo
[11] = target: 11-beta-hydroxysteroid dehydrogenase 1 (Mus musculus) (UniProt P50172); assay: Inhibition of mouse 11beta-HSD1 in DIO mouse adipose tissue at 30 mg/kg, po after 1 hr; type: organism-based; set-up: dose 30 mg/kg
[12] = Oral bioavailability in mouse at 10 mg/kg, po; type: ADME, organism-based; details: in vivo
[13] = target: T1, 11-beta-hydroxysteroid dehydrogenase type 2 (Rattus norvegicus, UniProt P50233); assay: Inhibitory activity against rat 11beta-HSD2
T1 sequence (P50233 whole entry): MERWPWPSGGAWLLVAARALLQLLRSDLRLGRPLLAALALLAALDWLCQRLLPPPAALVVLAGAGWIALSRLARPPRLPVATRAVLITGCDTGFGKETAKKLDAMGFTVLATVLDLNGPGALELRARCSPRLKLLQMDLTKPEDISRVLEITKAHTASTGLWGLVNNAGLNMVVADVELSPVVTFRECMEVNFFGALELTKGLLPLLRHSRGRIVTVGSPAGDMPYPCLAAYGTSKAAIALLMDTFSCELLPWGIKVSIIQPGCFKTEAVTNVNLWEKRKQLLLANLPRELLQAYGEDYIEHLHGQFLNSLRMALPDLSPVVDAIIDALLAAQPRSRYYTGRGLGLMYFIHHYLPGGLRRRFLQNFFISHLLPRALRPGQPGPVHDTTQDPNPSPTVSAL

[14] = target: T2, 11-beta-hydroxysteroid dehydrogenase type 2 (Mus musculus, UniProt P51661); assay: Inhibitory activity against mouse 11beta-HSD2 by SPA
T2 sequence (P51661 whole entry): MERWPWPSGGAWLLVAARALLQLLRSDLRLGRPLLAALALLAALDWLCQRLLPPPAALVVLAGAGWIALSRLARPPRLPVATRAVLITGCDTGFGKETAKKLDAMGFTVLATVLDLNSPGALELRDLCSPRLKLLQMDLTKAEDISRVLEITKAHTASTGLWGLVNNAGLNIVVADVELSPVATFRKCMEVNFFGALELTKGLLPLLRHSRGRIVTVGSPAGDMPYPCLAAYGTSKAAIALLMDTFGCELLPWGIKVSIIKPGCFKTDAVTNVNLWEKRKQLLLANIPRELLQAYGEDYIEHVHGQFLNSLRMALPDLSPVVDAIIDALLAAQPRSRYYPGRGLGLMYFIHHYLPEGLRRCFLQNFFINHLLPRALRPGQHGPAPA

[15] = target: 11-beta-hydroxysteroid dehydrogenase 1 (Mus musculus) (UniProt P50172); assay: Inhibition of mouse 11beta-HSD1 in DIO mouse liver at 30 mg/kg, po after 1 hr; type: organism-based; set-up: dose 30 mg/kg
[16] = Volume of distribution in rat at 5 mg/kg, iv; type: ADME, organism-based; set-up: dose 5 mg/kg, route intravenous; details: in vivo, read-out: Vss
[17] = target: T3, 11-beta-hydroxysteroid dehydrogenase 1 (Homo sapiens, UniProt P28845); assay: Inhibition of human 11beta-HSD1 expressed in HEK293 cells by FPIA; type: cell-based
[18] = target: T4, 11-beta-hydroxysteroid dehydrogenase type 2 (Homo sapiens, UniProt P80365); assay: Inhibitory activity against human 11beta-HSD2 by SPA
T4 sequence (P80365 whole entry): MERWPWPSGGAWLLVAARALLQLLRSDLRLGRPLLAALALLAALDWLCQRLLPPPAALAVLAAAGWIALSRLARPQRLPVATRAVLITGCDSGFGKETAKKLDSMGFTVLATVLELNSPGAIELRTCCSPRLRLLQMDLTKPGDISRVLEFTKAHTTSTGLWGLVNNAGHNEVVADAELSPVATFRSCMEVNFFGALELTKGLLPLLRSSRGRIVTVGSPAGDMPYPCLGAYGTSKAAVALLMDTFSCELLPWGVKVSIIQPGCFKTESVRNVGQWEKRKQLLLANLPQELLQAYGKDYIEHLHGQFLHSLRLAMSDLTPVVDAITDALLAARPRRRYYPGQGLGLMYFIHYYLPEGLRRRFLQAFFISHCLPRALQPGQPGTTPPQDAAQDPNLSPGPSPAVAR

[19] = Half life in rat at 5 mg/kg, iv; type: ADME, organism-based; set-up: dose 5 mg/kg, route intravenous; details: in vivo
[20] = Plasma clearance in rat at 5 mg/kg, iv; type: ADME, organism-based; set-up: dose 5 mg/kg, route intravenous
Rattus norvegicus = assay: Area under the curve in rat at 5 mg/kg, po; type: ADME, organism-based; set-up: dose 5 mg/kg, route oral; details: in vivo
[21] = Intrinsic clearance in rat liver microsomes at 1 uM; type: ADME, Microsome
[22] = Oral bioavailability in rat at 5 mg/kg, po; type: ADME, organism-based; details: in vivo
[23] = Volume of distribution in mouse at 10 mg/kg, iv; type: ADME, organism-based; set-up: dose 10 mg/kg, route intravenous; details: in vivo, read-out: Vdss
[24] = target: 11-beta-hydroxysteroid dehydrogenase 1 (Mus musculus) (UniProt P50172); assay: Inhibition of mouse 11beta-HSD1 in DIO mouse brain at 30 mg/kg, po after 7 hrs; type: organism-based; set-up: dose 30 mg/kg
[25] = Half life in mouse at 10 mg/kg, po; type: ADME, organism-based; set-up: dose 10 mg/kg, route oral; details: in vivo
[26] = target: T3, 11-beta-hydroxysteroid dehydrogenase 1; assay: Inhibition of human 11beta-HSD1 expressed in Escherichia coli by SPA

T3 sequence (P28845 whole entry): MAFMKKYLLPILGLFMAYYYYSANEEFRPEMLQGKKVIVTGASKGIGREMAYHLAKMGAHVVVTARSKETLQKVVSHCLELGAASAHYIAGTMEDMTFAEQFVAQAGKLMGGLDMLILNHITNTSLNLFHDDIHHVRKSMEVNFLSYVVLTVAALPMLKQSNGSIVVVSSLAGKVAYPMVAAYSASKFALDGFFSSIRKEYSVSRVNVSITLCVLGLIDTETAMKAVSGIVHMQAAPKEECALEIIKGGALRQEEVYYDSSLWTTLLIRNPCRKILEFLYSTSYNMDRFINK
Sequence of 11-beta-hydroxysteroid dehydrogenase 1 (Mus musculus) (P50172 whole entry, looked up): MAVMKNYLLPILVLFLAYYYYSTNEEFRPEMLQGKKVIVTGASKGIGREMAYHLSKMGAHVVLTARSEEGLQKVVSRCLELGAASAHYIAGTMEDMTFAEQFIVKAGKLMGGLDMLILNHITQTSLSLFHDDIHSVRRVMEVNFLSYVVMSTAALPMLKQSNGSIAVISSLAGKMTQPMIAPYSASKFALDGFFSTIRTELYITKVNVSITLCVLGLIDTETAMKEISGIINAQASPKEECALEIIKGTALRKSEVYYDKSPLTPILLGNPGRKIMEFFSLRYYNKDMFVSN
Sequence of 11-beta-hydroxysteroid dehydrogenase 1 (Mus musculus, UniProt P50172) (P50172 whole entry): as the sequence (P50172 whole entry, looked up) above
Sequence of 11-beta-hydroxysteroid dehydrogenase 1 (Rattus norvegicus, UniProt P16232) (P16232 whole entry): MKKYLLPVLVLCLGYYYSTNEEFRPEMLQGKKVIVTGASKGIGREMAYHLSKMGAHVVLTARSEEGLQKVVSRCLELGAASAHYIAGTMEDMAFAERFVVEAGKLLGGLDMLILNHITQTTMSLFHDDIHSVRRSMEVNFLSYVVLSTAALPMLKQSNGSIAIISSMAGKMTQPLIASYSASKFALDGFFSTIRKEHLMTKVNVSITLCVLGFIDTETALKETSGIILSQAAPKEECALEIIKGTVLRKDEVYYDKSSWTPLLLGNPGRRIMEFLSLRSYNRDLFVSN

In the case of `CC(C(=O)N[C@H]1C2C[C@@]3(O)CC1C[C@@](F)(C2)C3)N1CCN(c2ccc(C(F)(F)F)cn2)CC1` (mixture of isomers), the CLint scaled at 1 µM [1] is reported as < 16.7 mL/min/kg, the Ki [2] is reported as 0.033 µM and the CLint scaled at 1 µM [3] is reported as 233 mL/min/kg.
`CC(C(=O)N[C@H]1C2CC3CC1C[C@](O)(C3)C2)N1CCN(c2ccc(C(F)(F)F)cn2)CC1` (mixture of isomers) showed an inhibition [4] of 9%, a clearance [5] of 55 mL/min/kg and an inhibition [6] of 16%. The Ki [7] was 0.004 µM, the half-life [8] was 1.6 h and the inhibition [9] was 37%. The AUC (Mus musculus) was 1.9 ug/hr.ml, the half-life [10] was 0.4 h and the inhibition [11] was 51%. The bioavailability [12] was 65%, the IC50 [13] was > 100 µM and the IC50 [14] was > 100 µM. For the same molecule, the CLint scaled at 1 µM [1] was 50 mL/min/kg, the Ki [2] was 0.015 µM and the inhibition [15] was 36%. The Vd [16] was 1 L/kg, the IC50 [17] was 0.029 µM and the IC50 [18] was > 100 µM. The half-life [19] was 1 h, the clearance [20] was 33.3 mL/min/kg and the AUC (Rattus norvegicus) was 1 ug/hr.ml. For the same molecule, the CLint scaled at 1 µM [21] was 83.3 mL/min/kg, the bioavailability [22] was 37% and the CLint scaled at 1 µM [3] was 117 mL/min/kg. The Vd [23] was 1.6 L/kg, the inhibition [24] was 25% and the half-life [25] was 1 h. It also gave a Ki [26] of 0.005 µM.
Molecule `CC(C(=O)N[C@H]1C2CC3CC1C[C@](O)(C3)C2)N1CCc2ccc3c(c2CC1)OCO3` (some centres undefined) has a clearance [5] of 155 mL/min/kg, a Ki [7] of 0.013 µM and an AUC (Mus musculus) of 0.2 ug/hr.ml. The half-life [10] was 0.5 h, the bioavailability [12] was 19% and the IC50 [13] was > 100 µM. The IC50 [14] was > 100 µM, the CLint scaled at 1 µM [1] was 33.3 mL/min/kg and the Ki [2] was 0.005 µM. For the same molecule, the IC50 [17] was 0.021 µM, the IC50 [18] was 62 µM and the CLint scaled at 1 µM [21] was 567 mL/min/kg. For the same molecule, the CLint scaled at 1 µM [3] was 333 mL/min/kg, the Vd [23] was 2.7 L/kg and the half-life [25] was 4.2 h. For the same molecule, the Ki [26] was 0.004 µM.
In the case of `O=C(CN1CCN(c2ccc(C(F)(F)F)cn2)CC1)NC1C2CC3CC(C2)CC1(O)C3` (racemic), the IC50 [14] is reported as > 100 µM, the CLint scaled at 1 µM [1] is reported as 217 mL/min/kg and the Ki [2] is reported as 0.11 µM. For the same molecule, the IC50 [17] was > 10 µM, the IC50 [18] was > 100 µM and the CLint scaled at 1 µM [3] was 5130 mL/min/kg. For the same molecule, the Ki [26] was 0.18 µM.
With `CC(C)(C(=O)N[C@H]1C2CC3CC1C[C@](O)(C3)C2)N1CCN(c2ccc(C(F)(F)F)cn2)CC1` the IC50 [14] was > 100 µM, the CLint scaled at 1 µM [1] was 100 mL/min/kg and the IC50 [18] was > 100 µM. The CLint scaled at 1 µM [3] was 2170 mL/min/kg.
For `C[C@@H](C(=O)N[C@H]1C2CC3CC1C[C@](O)(C3)C2)N1CC[C@@H](F)C1`, the IC50 [14] was > 100 µM, the CLint scaled at 1 µM [1] was < 16.7 mL/min/kg and the Ki [2] was 0.024 µM. For the same molecule, the IC50 [17] was 0.45 µM, the IC50 [18] was > 100 µM and the CLint scaled at 1 µM [3] was < 100 mL/min/kg. The Ki [26] was 0.021 µM.
In the case of `C[C@H](C(=O)N[C@H]1C2CC3CC1C[C@](O)(C3)C2)N1CC[C@@H](F)C1`, the IC50 [14] is reported as > 100 µM, the CLint scaled at 1 µM [1] is reported as < 16.7 mL/min/kg and the Ki [2] is reported as 0.009 µM. The IC50 [17] was 0.18 µM, the IC50 [18] was > 100 µM and the CLint scaled at 1 µM [3] was < 100 mL/min/kg. The Ki [26] was 0.012 µM.
With `O=C(CN1CCN(c2ccc(C(F)(F)F)cn2)CC1)N[C@H]1C2CC3CC1C[C@](O)(C3)C2` the Ki [7] was 0.006 µM, the half-life [8] was 1.3 h and the IC50 [13] was > 100 µM. For the same molecule, the IC50 [14] was > 100 µM, the CLint scaled at 1 µM [1] was 16.7 mL/min/kg and the Ki [2] was 0.034 µM. For the same molecule, the Vd [16] was 2.2 L/kg, the IC50 [17] was 0.13 µM and the IC50 [18] was > 100 µM. The half-life [19] was 1.4 h, the clearance [20] was 23.3 mL/min/kg and the AUC (Rattus norvegicus) was 2.4 ug/hr.ml. The CLint scaled at 1 µM [21] was < 50 mL/min/kg, the bioavailability [22] was 65% and the CLint scaled at 1 µM [3] was 683 mL/min/kg. For the same molecule, the Ki [26] was 0.008 µM.
For `CO[C@]12CC3C[C@](O)(CC(C1)C3NC(=O)C(C)(C)N1CCN(c3ccc(C(F)(F)F)cn3)CC1)C2` (some centres undefined), the CLint scaled at 1 µM [1] was < 16.7 mL/min/kg, the Ki [2] was 0.18 µM and the CLint scaled at 1 µM [3] was 1000 mL/min/kg.
For `CC(C)(C(=O)N[C@H]1C2C[C@@]3(O)CC1C[C@@](O)(C2)C3)N1CCN(c2ccc(C(F)(F)F)cn2)CC1`, the CLint scaled at 1 µM [1] was < 16.7 mL/min/kg, the Ki [2] was 0.47 µM and the CLint scaled at 1 µM [3] was 383 mL/min/kg.
Molecule `CO[C@]12CC3CC(C1)[C@@H](NC(=O)C(C)N1CCN(c4ccc(C(F)(F)F)cn4)CC1)C(C3)C2` (mixture of isomers) has a CLint scaled at 1 µM [1] of 50 mL/min/kg, a Ki [2] of 0.018 µM and a CLint scaled at 1 µM [3] of 183 mL/min/kg.
For `N#Cc1cccnc1N1CCN(CC(=O)NC2C3CC4CC(C3)CC2C4)CC1` (centres undefined), the IC50 [14] was > 100 µM, the CLint scaled at 1 µM [1] was 1830 mL/min/kg and the Ki [2] was 0.053 µM. For the same molecule, the IC50 [17] was 0.26 µM, the IC50 [18] was > 100 µM and the CLint scaled at 1 µM [3] was 6330 mL/min/kg. For the same molecule, the Ki [26] was 0.014 µM.
